One compound from paper PMC5849211 (Chemical Science, 2017) can be followed below.

This data set deals with Saos-2 cells. Put plainly: MTT assay, Saos-2 cells. Format: cell-based, human. To be noted: 0.5 mM levamisole, 3 h + 24 h, n = 3.

With `c1ccc([C@H]2CN3CCSC3=N2)cc1` [levamisole], the “cell viability, Saos-2, levamisole alone” value is “no obvious effect on the cell viability alone”.
